In US20120270771A1, “APOLIPOPROTEIN A-1 MIMIC PEPTIDES, AND THERAPEUTIC AGENT FOR TREATING HYPERLIPIDEMIA AND DISEASES RELATED TO HYPERLIPIDEMIA COMPRISING SAME” (SNU R&DB FOUNDATION, priority 2009, published 2012):
Square brackets hold non-standard residues; d marks the D form. 2Nal = N[C@@H](Cc1ccc2ccccc2c1)C(=O)O

How the values were obtained:
[1] = tryptophan fluorescence measurement of peptide with or without liposome (LUV); format: binding; settings: for dependence of tryptophan fluorescence intensity on the relative amount of cholesterol in the liposome: LUVs containing cholesterol at 0%, 10%, 20%, 30% and 40%, FIG. 5; for tryptophan fluorescence intensity measured under LUV condition (ratio with or without liposome): 1 μM peptide, liposome 0.1 mg/ml; for tryptophan fluorescence intensity measured under LUV condition (ratio with or without liposome) / increase in fluorescence intensity in the lipid environment when compared to in aqueous solution: FIG. 4; for increase in fluorescence intensity in the lipid environment when compared to in aqueous solution: tryptophan fluorescence
Method: Total 10 mg of lipid compound was prepared by mixing phosphatidylcholine (soybean) and the LUVs containing cholesterol at 0%, 10%, 20%, 30% and 40%. The lipid compound was dissolved in 2 mL of solution containing 2:1 volumes of chloroform and methanol. The solvent is removed by using distillation condensation device and yielding a thin lipid film in the flask. The lipid film is hydrated by adding 1 mL of tertiary distilled water. Liposomes of the same size were generated by extruding the solution through a […] filter for 5 times, and 0.1 μm polycarbonate filter for 5 times using a cylinder fitted with a high pressure regulator. The amount of cholesterol contained in the liposome was measured by using cholesterol Lab-assay kit.
Fluorescence Anisotropy was measured using AMINCO-Bowman Series Luminescence Spectrometer at 20° C. For the buffer system, 10 mM HEPES (N-2-Hydroxyethylpiperazine-N′-2-Ethanesulfonic Acid, pH 7.4) containing 140 mM NaCl, 1 mM EDTA (ethylenediaminetetraacetic acid) was used. The concentration of the peptide was 500 μM and was kept at 0° C. The fluorescence emission spectrum was monitored by adding […] of peptide with 499 μl buffer solution to a final concentration of 1 μM. Liposome was added to the above buffer and peptide mixture solution to the final concentration of 0.1 mg/ml. The ratio of the intensity was calculated by measuring the spectrum in the condition of with or without liposome.

macrophage cell line = experiment: cholesterol efflux assay in macrophage cells loaded with 3H-labeled cholesterol; format: cell-based, Human; settings: 20 μM peptide, 4 hr incubation
Method: The present inventors determined the calculated mass value of the Apo A-I mimic peptide and the actual mass value of the A-1 mimic peptide acquired following the synthesis and purification step (see Table 1). In addition, cholesterol efflux was analyzed to screen the peptides. Human macrophage cells were treated with ^3H radioisotope labeled cholesterol. Next, the cells were treated with each of the peptide prepared from above. The amount of high density lipoprotein (HDL) produced was analyzed by measuring the amount of intracellular cholesterol and extracellular cholesterol released from the macrophage. […] There was a significant increase in cholesterol efflux when phenylalanine was substituted with tryptophan or naphthylalanine (see FIG. 3).
In order to screen which of the peptide synthesized from Example 1 mimics the Apo A-I, cholesterol efflux assay was performed by treating the macrophage cell line with the peptides. In particular, DMEM (Dulbecco's Modified Eagle medium) containing penicillin-streptomycin and 10% FBS (Fetal Bovine Serum) was used as the cell culture medium. […] The culture medium and the cells were separated to measure the radioactivity using Liquid Scintillation Counter. The level of cholesterol efflux was determined by measuring the ratio of isotope labeled cholesterol remained in the cell and in the cell culture medium, respectively.

| Substance | dependence of tryptophan fluorescence intensity on the relative amount of cholesterol in the liposome [1] | tryptophan fluorescence intensity measured under LUV condition (ratio with or without liposome) [1] | increase in fluorescence intensity in the lipid environment when compared to in aqueous solution [1] | increase in cholesterol efflux when compared to peptide 4F (macrophage cell line) |
| --- | --- | --- | --- | --- |
| Ac-DWFAKDYFKKAFVEEFAK (Ac-DWFAKDYFKKAFVEEFAK-NH2) [Sc-4F, negative control group of 4F, reference compound] | irrelevant to the concentration of cholesterol | – | – | – |
| Ac-DWFKAFYDKVAEKFKEAF (Ac-DWFKAFYDKVAEKFKEAF-NH2) [4F, existing Apo A-I mimic peptide, first generation amphiphilic alpha helix peptide containing 4 phenylalanine, reference compound] | irrelevant to the concentration of cholesterol | about 1.9 | – | – |
| Ac-EWFKAFYDKVAEKFKEAF (Ac-EWFKAFYDKVAEKFKEAF-NH2) [1a] | – | ~2.1 | about 2.1 fold | – |
| Ac-EWNal2KAFYDKVAEKFKEANal2 (Ac-EW[2Nal]KAFYDKVAEKFKEA[2Nal]-NH2; SMILES CC(=O)N[C@@H](CCC(=O)O)C(=O)N[C@@H](Cc1c[nH]c2ccccc12)C(=O)N[C@@H](Cc1ccc2ccccc2c1)C(=O)N[C@@H](CCCCN)C(=O)N[C@@H](C)C(=O)N[C@@H](Cc1ccccc1)C(=O)N[C@@H](Cc1ccc(O)cc1)C(=O)N[C@@H](CC(=O)O)C(=O)N[C@@H](CCCCN)C(=O)N[C@H](C(=O)N[C@@H](C)C(=O)N[C@@H](CCC(=O)O)C(=O)N[C@@H](CCCCN)C(=O)N[C@@H](Cc1ccccc1)C(=O)N[C@@H](CCCCN)C(=O)N[C@@H](CCC(=O)O)C(=O)N[C@@H](C)C(=O)N[C@@H](Cc1ccc2ccccc2c1)C(N)=O)C(C)C) [2s] | significant increase of fluorescence intensity according to the increased concentration of the cholesterol inside the liposome | about 4.3 | about 4.30 fold | about 300% |
